This note sets out measurements from patent publication US11697646B2, “Triazole N-linked carbamoyl cyclohexyl acids as LPA antagonists” (BRISTOL-MYERS SQUIBB COMPANY, priority 2017, dated 2023).

The structures appear in SMILES notation.

The target in one test is T1, human LPA1 (Homo sapiens, UniProt Q92633).
T1 construct: expressed in transfected cells; host or cells: Chinese hamster ovary (CHO) cells
T1 sequence (Q92633 whole entry): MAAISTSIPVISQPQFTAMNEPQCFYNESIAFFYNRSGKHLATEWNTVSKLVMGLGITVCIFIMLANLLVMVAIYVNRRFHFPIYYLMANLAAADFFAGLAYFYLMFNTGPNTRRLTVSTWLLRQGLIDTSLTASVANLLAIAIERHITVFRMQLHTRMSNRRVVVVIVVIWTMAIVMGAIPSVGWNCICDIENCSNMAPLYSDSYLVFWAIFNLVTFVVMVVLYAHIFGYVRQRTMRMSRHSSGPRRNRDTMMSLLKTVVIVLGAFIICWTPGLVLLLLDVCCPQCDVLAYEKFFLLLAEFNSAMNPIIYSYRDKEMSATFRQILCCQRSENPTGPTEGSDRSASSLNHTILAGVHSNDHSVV
Kind of test: LPA1 functional antagonist assay (calcium flux). The note with it: CHO cells overexpressing human LPA1; calcium flux induced by 10 nM LPA; read-out: hLPA1 IC50. The format is cell-based. The method, then: The effectiveness of compounds of the present invention as LPA1 inhibitors can be determined in an LPA1 functional antagonist assay as follows:
The cells were then equilibrated to room temperature for 30 minutes before the assay. […] IC50 values were determined by fitting data to a 4-parameter logistic equation (GraphPad Prism, San Diego Calif.).
With `Cc1nc(-c2nnn(C)c2CNC(=O)OCc2ccccc2)ccc1O[C@@H]1CCC[C@@](F)(C(=O)O)C1` (single isomer, unassigned) [Example 211], the IC50 (commonly the midpoint of a concentration-inhibition curve) came out at 192 nM.

As to `Cn1nnc(-c2ccc(O[C@H]3CCC[C@H](C(=O)O)C3)cn2)c1NC(=O)OCC1CC1` [Example 83, (1S,3S)-3-((6-(5-(((cyclopropyl-methoxy)carbonyl)amino)-1-methyl-1H-1,2,3-triazol-4-yl)pyridin-3-yl)oxy)cyclohexane-1-carboxylic acid], the IC50 came to 178 nM.

As to `Cc1nc(-c2nnn(C)c2NC(=O)OCCC(C)(C)C)ccc1O[C@H]1CCC[C@H](C(=O)O)C1` [Example 65, (1S,3S)-3-((6-(5-(((3,3-dimethyl-butoxy)carbonyl)amino)-1-methyl-1H-1,2,3-triazol-4-yl)-2-methyl-pyridin-3-yl)oxy)cyclohexane-1-carboxylic acid], the half-inhibitory concentration (IC50) was 75 nM. Consider `Cc1nc(-c2nnn(C)c2CNC(=O)OCc2cc(F)cc(F)c2)ccc1O[C@H]1CCC[C@H](C(=O)O)C1` [Example 8, (1S,3S)-3-((6-(5-(((((3,5-difluorobenzyl)oxy)carbonyl)amino)methyl)-1-methyl-1H-1,2,3-triazol-4-yl)-2-methylpyridin-3-yl)oxy)cyclohexane-1-carboxylic acid], for which the half-maximal inhibitory concentration (IC50) came out at 5 nM. Still for that read-out and setting: next, `Cc1nc(-c2nnn(C)c2CNC(=O)OCC2CC(C)(C)C2)ccc1O[C@H]1CCC[C@H](C(=O)O)C1` [Example 38, (1S,3S)-3-((6-(5-(((((3,3-dimethylcyclobutyl)methoxy)carbonyl)amino)methyl)-1-methyl-1H-1,2,3-triazol-4-yl)-2-methylpyridin-3-yl)oxy)cyclohexanecarboxylic acid]: 19 nM; `Cc1nc(-c2nnn(C)c2CNC(=O)NCCC(C)C)ccc1O[C@H]1CCC[C@H](C(=O)O)C1` [Example 122, (1S,3S)-3-((6-(5-((3-isopentyl-ureido)methyl)-1-methyl-1H-1,2,3-triazol-4-yl)-2-methylpyridin-3-yl)oxy)cyclohexane-1-carboxylic acid]: 101 nM; `CCCOC(=O)Nc1c(-c2ccc(O[C@H]3CCC[C@H](C(=O)O)C3)cn2)nnn1C` [Example 221, (1S,3S)-3-((6-(1-methyl-5-((pro-poxy-carbonyl)amino)-1H-1,2,3-triazol-4-yl)pyridin-3-yl)oxy)cyclohexane-1-carboxylic acid]: 42 nM. `Cc1nc(-c2nnn(C)c2CN(C)S(=O)(=O)N(C)Cc2ccccc2)ccc1O[C@H]1CCC[C@H](C(=O)O)C1` [Example 228, (1S,3S)-3-((6-(5-(((N-benzyl-N-methyl-sulfamoyl)(methyl)amino)methyl)-1-methyl-1H-1,2,3-triazol-4-yl)-2-methylpyridin-3-yl)oxy)cyclohexane-1-carboxylic acid]: the IC50 came to 218 nM. Consider `Cc1nc(-c2nnn(C)c2CNS(=O)(=O)N(C)Cc2ccccc2)ccc1O[C@H]1CCC[C@H](C(=O)O)C1` [Example 139, (1S,3S)-3-((6-(5-(((N-benzyl-N-methylsulfamoyl)amino)methyl)-1-methyl-1H-1,2,3-triazol-4-yl)-2-methylpyridin-3-yl)oxy)cyclohexane-1-carboxylic acid], for which the IC50 came out at 313 nM. The same measure, in the same setting: next, `Cc1nc(-c2nnn(C)c2CNC(=O)OCCC(C)(C)C)ccc1O[C@H]1CCC[C@H](C(=O)O)C1` [Example 37, (1S,3S)-3-((6-(5-((((3,3-dimethylbutoxy)carbonyl)amino)methyl)-1-methyl-1H-1,2,3-triazol-4-yl)-2-methylpyridin-3-yl)oxy)cyclohexanecarboxylic acid]: 12 nM. Same read-out and setting: next, `CCCCCOC(=O)NCc1c(-c2ccc(O[C@H]3CCC[C@H](C(=O)O)C3)cn2)nnn1C` [Example 27, (1S,3S)-3-((6-(1-methyl-5-((((pentyloxy)carbonyl)amino)methyl)-1H-1,2,3-triazol-4-yl)pyridin-3-yl)oxy)cyclohexane-1-carboxylic acid]: 16 nM. `Cn1nnc(-c2ccc(O[C@H]3CCC[C@H](C(=O)O)C3)cn2)c1CNC(=O)OCc1cccc(F)c1` [Example 12, (1S,3S)-3-((6-(5-(((((3-fluorobenzyl)oxy)carbonyl)amino)methyl)-1-methyl-1H-1,2,3-triazol-4-yl)pyridin-3-yl)oxy)cyclohexane-1-carboxylic acid]: the IC50 was 23 nM. Consider `CCc1nc(-c2nnn(C)c2CNC(=O)NCC2CC2)ccc1O[C@H]1CCC[C@H](C(=O)O)C1` [Example 152, (1S,3S)-3-((6-(5-((3-(cyclopropyl-methyl)ureido)methyl)-1-methyl-1H-1,2,3-triazol-4-yl)-2-ethyl-pyridin-3-yl)oxy)cyclohexane-1-carboxylic acid], for which the concentration for half-maximal inhibition (IC50) stood at 270 nM.

Turning to `COCCCOC(=O)NCc1c(-c2ccc(O[C@H]3CCC[C@H](C(=O)O)C3)c(C)n2)nnn1C` [Example 53, (1S,3S)-3-((6-(5-((((3-methoxypropoxy)carbonyl)amino)methyl)-1-methyl-1H-1,2,3-triazol-4-yl)-2-methylpyridin-3-yl)oxy)cyclohexane-1-carboxylic acid], the IC50 amounted to 342 nM. Consider `Cc1nc(-c2nnn(C)c2NC(=O)OCc2ccccc2)ccc1O[C@H]1CCC[C@H](C(=O)O)C1` [Example 80, (1S,3S)-3-((6-(5-(((benzyloxy)carbonyl)amino)-1-methyl-1H-1,2,3-triazol-4-yl)-2-methylpyridin-3-yl)oxy)cyclohexane-1-carboxylic acid], for which the IC50 was 37 nM. With `Cc1nc(-c2nnn(C)c2CNC(=O)OCC2CCC2)c(F)cc1O[C@H]1CCC[C@H](C(=O)O)C1` [Example 212, (1S,3S)-3-((6-(5-((((cyclobutylmethoxy)carbonyl)amino)methyl)-1-methyl-1H-1,2,3-triazol-4-yl)-5-fluoro-2-methylpyridin-3-yl)oxy)cyclohexane-1-carboxylic acid], the IC50 was 112 nM. The same measure, in the same setting: then `CCc1nc(-c2nnn(C)c2CNC(=O)NCc2ccccc2)ccc1O[C@H]1CCC[C@H](C(=O)O)C1` [Example 153, (1S,3S)-3-((6-(5-((3-benzyl-ureido)methyl)-1-methyl-1H-1,2,3-triazol-4-yl)-2-ethylpyridin-3-yl)oxy)cyclohexane-1-carboxylic acid], with 107 nM; and `Cc1nc(-c2nnn(C)c2CNC(=O)OCC2CC(F)C2)ccc1O[C@H]1CCC[C@H](C(=O)O)C1` (mixture of isomers) [Example 48, (1S,3S)-3-((6-(5-(((((3-fluorocyclobutyl)methoxy)carbonyl)amino)methyl)-1-methyl-1H-1,2,3-triazol-4-yl)-2-methylpyridin-3-yl)oxy)cyclohexane-1-carboxylic acid], with 48 nM; and `Cc1nc(-c2nnn(C)c2NC(=O)N[C@H](C)c2ccccc2)ccc1O[C@H]1CCC[C@H](C(=O)O)C1` [Example 136, (1S,3S)-3-((2-methyl-6-(1-methyl-5-(3-((R)-1-phenylethyl)ureido)-1H-1,2,3-triazol-4-yl)pyridin-3-yl)oxy) cyclohexane-1-carboxylic acid], with 103 nM. On to `CCCCOC(=O)NCc1c(-c2ccc(O[C@H]3CCC[C@H](C(=O)O)C3)c(CC)n2)nnn1C` [Example 41, (1S,3S)-3-((6-(5-(((butoxycarbonyl)amino)methyl)-1-methyl-1H-1,2,3-triazol-4-yl)-2-ethylpyridin-3-yl)oxy)cyclohexane-1-carboxylic acid], for which the IC50 was 8 nM. As to `CCc1nc(-c2nnn(C)c2CNC(=O)N(C)CC2CCC2)ccc1O[C@H]1CCC[C@H](C(=O)O)C1` [Example 148, (1S,3S)-3-((6-(5-((3-(cyclobutyl-methyl)-3-methylureido)methyl)-1-methyl-1H-1,2,3-triazol-4-yl)-2-ethylpyridin-3-yl)oxy)cyclohexane-1-carboxylic acid], the IC50 stood at 62 nM.

Staying with this test, now noted: human LPA1 functional antagonist assay; read-out: hLPA1 IC50.
`Cc1nc(-c2nnn(C)c2CNC(=O)OCC(F)(F)C(F)(F)F)ccc1O[C@H]1CCC[C@H](C(=O)O)C1` [Example 198]: the 50% inhibitory concentration (IC50) is 45 nM. For `Cc1nc(-c2nnn(C)c2CNC(=O)O[C@@H](C)C(C)C)ccc1O[C@H]1CCC[C@H](C(=O)O)C1` [Example 173, (1S,3S)-3((2-methyl-6-(1-methyl-5-((((((S)-3-methylbutan-2-yl)oxy)carbonyl)amino)methyl)-1H-1,2,3-triazol-4-yl)pyridin-3-yl)oxy)cyclohexane-1-carboxylic acid], the half-maximal inhibitory concentration (IC50) came out at 167 nM. As to `Cc1nc(-c2nnn(C)c2CNC(=O)OCC2(CCF)CC2)ccc1O[C@H]1CCC[C@H](C(=O)O)C1` [Example 163, (1S,3S)-3-((6-(5-(((((1-(2-fluoro-ethyl)cyclopropyl)methoxy)carbonyl)amino)methyl)-1-methyl-1H-1,2,3-triazol-4-yl)-2-methylpyridin-3-yl)oxy)cyclohexane-1-carboxylic acid], the IC50 turned out to be 88 nM.

As for `Cc1nc(-c2nnn(C)c2CNC(=O)O[C@@H](C)C(F)(F)F)ccc1O[C@H]1CCC[C@H](C(=O)O)C1` [Example 174, (1S,3S)-3-((2-methyl-6-(1-methyl-5-((((((S)-1,1,1-trifluoropropan-2-yl)oxy)carbonyl)amino)methyl)-1H-1,2,3-triazol-4-yl)pyridin-3-yl)oxy)cyclohexane-1-carboxylic acid], the IC50 turned out to be 101 nM. On the same count and under the same terms, then `Cc1nc(-c2nnn(C)c2CNC(=O)OCCC2(C)CC2)ccc1O[C@H]1CCC[C@H](C(=O)O)C1` [Example 195, (1S,3S)-3((2-methyl-6-(1-methyl-5-((((2-(1-methylcyclopropyl)ethoxy)carbonyl)amino)methyl)-1H-1,2,3-triazol-4-yl)pyridin-3-yl)oxy)cyclohexane-1-carboxylic acid], with 72 nM; and `CCC[C@H](C)OC(=O)NCc1c(-c2ccc(O[C@H]3CCC[C@H](C(=O)O)C3)c(C)n2)nnn1C` [Example 165, (1S,3S)-3((2-methyl-6-(1-methyl-5-((((((S)-pentan-2-yl)oxy)carbonyl)amino)methyl)-1H-1,2,3-triazol-4-yl)pyridin-3-yl)oxy)cyclohexane-1-carboxylic acid], with 34 nM.
